{
  "source": "patent US20130149392A1",
  "about": "“METHOD OF TREATING NON-SMALL CELL LUNG CANCER WITH BIS-(THIOHYDRAZIDE)AMIDE COMPOUNDS” (SYNTA PHARMACEUTICALS CORP., priority 2011, published 2013)",
  "tested_on": "Stage IIIB or Stage IV Non-Small Cell Lung Cancer (NSCLC)",
  "test": "Phase 2 clinical trial of Compound (1) (STA-4783, elesclomol) with paclitaxel and carboplatin vs paclitaxel and carboplatin; PFS and OS by baseline LDH",
  "type": "in vivo, human",
  "procedure": "A Phase 2 Clinical Trial of Compound (1), or STA-4783 (elesclomol) in combination with paclitaxel and carboplatin for the treatment of chemotherapy naive patients with Stage IIIB or Stage IV Non-Small Cell Lung Cancer (NSCLC) was performed. It was a multicenter, randomized, double-blinded, 2-arm study evaluating the recommended Phase 2 dose of STA-4783 (elesclomol) and paclitaxel and AUC=6 mg·min/mL carboplatin as compared with the recommended Phase 2 dose of paclitaxel and AUC=6 mg·min/mL carboplatin.\nBoth progression-free survival (PFS) and overall survival (OS) were improved in the low baseline LDH (≦0.8 ULN) population (where ULN is Upper Limit of Normal, which in at least one laboratory was 234 units/L, significant deviation from which was low).\nTable 1 presents PFS outcomes for ITT (Intent To Treat) population patients with high, normal and low baseline LDH levels. […] In patients with low baseline LDH levels, PFS was improved for treatment, with a median of 4.6 vs. 3.1 months (HR=0.88), where HR mean Hazard Ratio. In patients with normal baseline LDH, median PFS is similar for treatment and control arms (3.3 and 4.0 months, respectively), with a HR of 1.17. In patients with high baseline LDH, median PFS was 2.8 and 6.3 months for treatment and control arms, respectively (HR=[…])\nTable 2 presents a summary of the OS analyses for the ITT population with high, normal and low baseline LDH levels. In patients with low baseline LDH levels, OS was improved for treatment, with a median of 10.7 vs. 8.5 months (HR=0.74). In patients with normal baseline LDH, median OS is similar for treatment and control arms (8.4 and 8.4 months, respectively), with a HR of 0.91. In patients with high baseline LDH, median […] was 5 and 10 months for treatment and control arms, respectively (HR=1.64)",
  "key": {"[1]": {"settings": "elevated LDH (>1 ULN) population"}, "[2]": {"settings": "low baseline LDH (≦0.8 ULN) population"}},
  "data": [
    {"smiles": "CN(NC(=O)CC(=O)NN(C)C(=S)c1ccccc1)C(=S)c1ccccc1", "note": "[Compound (1), elesclomol]", "values": [
      {"measurement": "overall survival (OS), result in words", "setting": "[1]", "value": "negative impact"},
      {"measurement": "progression-free survival (PFS), result in words", "setting": "[1]", "value": "negative impact"},
      {"measurement": "overall survival (OS), result in words", "setting": "[2]", "value": "improved"},
      {"measurement": "progression-free survival (PFS), result in words", "setting": "[2]", "value": "improved"}
    ]}
  ]
}
